Data: US10189813B2, “Formylated N-heterocyclic derivatives as FGFR4 inhibitors” (NOVARTIS AG, priority 2015, dated 2019)
Read-outs that look alike come from different tables or passages of the source.

Experiments:
[1] = target: T1, FGFR4 (GST-FGFR4(388-802)) (Homo sapiens, UniProt P22455); test: In-vitro biochemical kinase assay for FGFR4 (Caliper mobility shift); details: 60 minutes at 30° C.
T1 construct: GST-FGFR4(388-802); GST (N); made in house; host or cells: insect cells
Method: In-Vitro Biochemical Kinase Assays for FGFR4
All assays were performed in 384 well microtiter plates. Each assay plate contained 8-point serial dilutions for 40 test compounds, as well as four 8-point serial dilutions of staurosporine as reference compound, plus 16 high and 16 low controls.
(§1) Liquid handling and incubation steps were done on an Innovadyne Nanodrop Express equipped with a robotic arm (Thermo CatX, Caliper Twister II) and an incubator (Liconic STX40, Thermo Cytomat 2C450). The assay plates were prepared by addition of 50 nI per well of compound solution in 90% DMSO. […] Kinase reactions were incubated at 30° C. for 60 minutes and subsequently terminated by addition of 16 μl per well of stop solution (100 mM HEPES pH 7.5, 5% DMSO, 0.1% Caliper coating reagent, 10 mM EDTA, and 0.015% Brij35). Plates with terminated kinase reactions were transferred to the Caliper LC3000 workstations for reading. Phosphorylated and unphosphorylated peptides were separated using the Caliper microfluidic mobility shift technology. Briefly, samples from terminated kinase reactions were applied to the chip. Analytes are transported through the chip by constant buffer flow and the migration of the substrate peptide is monitored by the fluorescence signal of its label. Phosphorylated peptide (product) and unphosphorylated peptide (substrate) are separated in an electric field by their charge/mass ratio. Kinase activities were calculated from the amounts of formed phospho-peptide. IC50 values were determined from percent inhibition values at different compound concentrations by non-linear regression analysis.
Preparation of Compound Dilutions
Test compounds were dissolved in DMSO (10 mM) and transferred into 1.4 mL flat bottom or V-shaped Matrix tubes carrying a unique 2D matrix. The stock solutions were stored at […] if not used immediately. For the test procedure the vials were defrosted and identified by a scanner whereby a working sheet was generated that guided the subsequent working steps.
Compound dilutions were made in 96 well plates. This format enabled the assay of maximally 40 individual test compounds at 8 concentrations (single points) including 4 reference compounds. The dilution protocol included the production of “pre-dilution plates”, “master plates” and “assay plates”.
96 polypropylene well plates were used as pre-dilution plates. A total of 4 pre-dilution plates were prepared including 10 test compounds each on the plate positions A1-A10, one standard compound at A11 and one DMSO control at A12. All dilution steps were done on a HamiltonSTAR robot.
These plates were used directly for the assay which was performed in a total volume of 9.05 μL.

[2] = target: BaF3-Tel-FGFR4 cells (TEL fused to cytoplasmic domain of FGFR4) (Homo sapiens, UniProt P22455); test: In vitro cellular kinase assay for FGFR4 (BaF3-Tel-FGFR4, MSD capture ELISA of tyrosine phosphorylation); details: 1 hour incubation
Chain of BaF3-Tel-FGFR4 cells (TEL fused to cytoplasmic domain of FGFR4) (P22455 with tags, fused parts or gaps): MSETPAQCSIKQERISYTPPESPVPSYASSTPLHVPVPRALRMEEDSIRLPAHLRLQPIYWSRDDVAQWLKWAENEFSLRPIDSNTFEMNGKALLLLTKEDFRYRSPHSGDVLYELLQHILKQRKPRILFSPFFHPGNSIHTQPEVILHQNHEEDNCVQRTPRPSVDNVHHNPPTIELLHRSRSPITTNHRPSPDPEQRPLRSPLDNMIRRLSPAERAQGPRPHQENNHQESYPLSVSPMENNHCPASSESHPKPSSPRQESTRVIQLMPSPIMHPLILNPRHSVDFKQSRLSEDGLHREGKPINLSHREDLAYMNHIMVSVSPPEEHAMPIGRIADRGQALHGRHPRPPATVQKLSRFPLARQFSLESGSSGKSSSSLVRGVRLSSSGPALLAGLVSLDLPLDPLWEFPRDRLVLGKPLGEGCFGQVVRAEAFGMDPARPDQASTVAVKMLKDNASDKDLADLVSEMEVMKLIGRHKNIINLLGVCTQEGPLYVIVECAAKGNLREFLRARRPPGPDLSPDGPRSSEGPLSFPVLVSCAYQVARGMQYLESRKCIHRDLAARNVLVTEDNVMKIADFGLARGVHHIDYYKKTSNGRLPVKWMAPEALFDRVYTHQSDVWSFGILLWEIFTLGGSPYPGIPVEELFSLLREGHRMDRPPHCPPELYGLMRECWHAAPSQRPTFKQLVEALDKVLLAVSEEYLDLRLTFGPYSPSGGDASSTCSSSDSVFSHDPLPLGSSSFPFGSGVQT

[3] = test system: HuH-7 hepatocellular carcinoma cells; test: CellTiter Glo (CTG) proliferation/viability assay; assay type: cell-based; details: HuH-7 cells, 3 days, half-maximal growth inhibition (GI50), read-out: HUH7 proliferation CTG
Method: CellTiter Glo (CTG) Assay:
The functional effect of compounds on cell proliferation is assessed using HuH-7 hepatocellular carcinoma cells obtained from the Japanese Collection of Research Bioresources Cell Bank (Cat# JCRB0403) and cultured in the vendor-recommended medium (DMEM high glucose (Amimed Cat#1-26F01-I), 10% foetal calf serum (Invitrogen Cat#16140-071), 1 mM sodium pyruvate (Amimed Cat#5-60F00-H), 1× Penicillin/Streptomycin (Amimed Cat#4-01F00-H)) at 37° C. in a humidified 5% CO2 incubator. Compound-mediated suppression of cell proliferation/viability is assessed by quantification of cellular ATP levels using the CellTiter-Glo (CTG) reagent (Promega, Cat# G7573). Briefly, cells are seeded at 3′000 cells/well/80 μl fresh medium into tissue-culture-treated 96-well plates (Costar Cat#3904), followed by addition of 20 μl medium containing compound dilutions at 5-fold their final intended concentration. Dose-response effects are assessed by 3-fold serial dilutions of the test compound, starting at 10 μM. Following incubation of the cells for 3 days at 37° C. and 5% CO2, the effect of inhibitors on cell viability is quantified following addition of 50 μl CTG and luminescence measurement (integration time: 500 ms) as per vendor manual, using a correspondingly equipped multi-mode plate reader (M200Pro, TECAN, Switzerland). For data analysis, the assay background value determined in wells containing medium, but no cells, is subtracted from all data points. To enable differentiation of cytotoxic from cytostatic compounds, the number of viable cells is assessed relative to that observed at the time of compound addition using a separate cell plate (day 0). The effect of a particular test compound concentration on cell proliferation/viability is expressed as percentage of the background- and day 0-corrected luminescence reading obtained for cells treated with vehicle only (DMSO, 0.1% f.c.), which is set as 100%, whereas the luminescence reading for wells containing medium only, but no cells, is set as −100%. Compound concentrations leading to half-maximal growth inhibition (GI50) are determined using standard four parameter curve fitting (XLfit 5.2., IDBS, UK).

FGFR3 (411-806) = target: T2, FGFR3 (411-806) (Homo sapiens, UniProt P22607); test: In vitro biochemical assay for FGFR3
T2 construct: FGFR3 (411-806)
T2 sequence (P22607 411-806): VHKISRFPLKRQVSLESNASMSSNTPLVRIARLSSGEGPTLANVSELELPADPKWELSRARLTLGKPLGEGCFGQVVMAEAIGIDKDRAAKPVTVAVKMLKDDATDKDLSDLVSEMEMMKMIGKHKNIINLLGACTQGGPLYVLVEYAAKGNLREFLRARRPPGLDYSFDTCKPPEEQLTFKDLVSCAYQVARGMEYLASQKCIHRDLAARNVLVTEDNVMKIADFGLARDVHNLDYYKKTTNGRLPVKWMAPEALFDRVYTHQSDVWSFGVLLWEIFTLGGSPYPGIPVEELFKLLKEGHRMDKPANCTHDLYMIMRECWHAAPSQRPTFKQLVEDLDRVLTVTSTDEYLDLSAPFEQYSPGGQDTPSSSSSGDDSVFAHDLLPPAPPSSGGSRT
Method: as §1
(§2) In vitro biochemical assays for FGFR1 (407-822), FGFR2 (406-821) and FGFR3 (411-806) were conducted in a similar manner to the in vitro biochemical assay for FGFR4 described above, using the indicated portions of the kinase domains. The following examples all produced IC50 values >10000 nM in the biochemical FGFR1, FGFR2 and FGFR3 assays: 2, 3, 4, 11, 13, 16, 17, 18, 20, 28, 30.

FGFR2 (406-821) = target: T3, FGFR2 (406-821) (Homo sapiens, UniProt P21802); test: In vitro biochemical assay for FGFR2
T3 construct: FGFR2 (406-821)
T3 sequence (P21802 406-821): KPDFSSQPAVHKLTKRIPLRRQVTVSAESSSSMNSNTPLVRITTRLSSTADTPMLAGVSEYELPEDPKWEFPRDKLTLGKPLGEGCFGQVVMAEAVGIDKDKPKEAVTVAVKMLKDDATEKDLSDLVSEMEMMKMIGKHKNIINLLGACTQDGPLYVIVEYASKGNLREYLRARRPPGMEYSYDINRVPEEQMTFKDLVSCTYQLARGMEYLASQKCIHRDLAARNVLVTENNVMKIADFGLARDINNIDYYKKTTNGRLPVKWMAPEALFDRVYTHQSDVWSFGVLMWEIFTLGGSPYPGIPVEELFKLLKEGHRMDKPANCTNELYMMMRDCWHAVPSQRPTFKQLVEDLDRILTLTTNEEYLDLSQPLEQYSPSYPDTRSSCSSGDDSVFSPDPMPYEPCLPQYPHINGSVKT
Method: as §1, §2

FGFR1 (407-822) = target: T4, FGFR1 (407-822) (Homo sapiens, UniProt P11362); test: In vitro biochemical assay for FGFR1
T4 construct: FGFR1 (407-822)
T4 sequence (P11362 407-822): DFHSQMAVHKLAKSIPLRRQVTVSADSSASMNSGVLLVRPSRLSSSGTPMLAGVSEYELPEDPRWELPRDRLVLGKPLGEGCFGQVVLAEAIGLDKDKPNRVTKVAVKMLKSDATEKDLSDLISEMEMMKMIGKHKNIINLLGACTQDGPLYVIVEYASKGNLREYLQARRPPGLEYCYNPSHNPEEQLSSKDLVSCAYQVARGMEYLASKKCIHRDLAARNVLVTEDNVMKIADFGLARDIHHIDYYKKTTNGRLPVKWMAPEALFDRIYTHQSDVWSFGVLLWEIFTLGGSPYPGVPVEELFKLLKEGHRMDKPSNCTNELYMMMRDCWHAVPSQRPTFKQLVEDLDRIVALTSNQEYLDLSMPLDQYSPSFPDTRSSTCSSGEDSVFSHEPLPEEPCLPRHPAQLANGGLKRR
Method: as §1, §2

T1 sequence (P22455 388-802): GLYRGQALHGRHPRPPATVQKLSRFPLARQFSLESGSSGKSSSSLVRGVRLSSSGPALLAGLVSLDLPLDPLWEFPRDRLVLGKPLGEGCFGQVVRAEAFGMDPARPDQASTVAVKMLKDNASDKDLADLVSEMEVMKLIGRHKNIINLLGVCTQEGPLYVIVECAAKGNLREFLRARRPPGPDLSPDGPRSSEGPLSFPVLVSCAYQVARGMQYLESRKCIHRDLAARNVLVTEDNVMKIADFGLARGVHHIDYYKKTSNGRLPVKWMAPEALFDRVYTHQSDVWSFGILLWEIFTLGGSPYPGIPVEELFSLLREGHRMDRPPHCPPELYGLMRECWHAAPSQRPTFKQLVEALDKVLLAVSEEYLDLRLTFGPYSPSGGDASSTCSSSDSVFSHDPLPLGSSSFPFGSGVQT

COCCNc1cc(NC(=O)N(CC2CCOC2)c2ccc(CO)c(C=O)n2)ncc1C#N (racemic) [Example 5, 3-(5-cyano-4-((2-methoxyethyl)amino)pyridin-2-yl)-1-(6-formyl-5-(hydroxymethyl)pyridin-2-yl)-1-((tetrahydrofuran-3-yl)methyl)urea] was tested, and the IC50 [1] was 0.066 µM and the IC50 [2] was 0.234 µM.

Compound CN(C(=O)Nc1cc(NCC(C)(C)O)c(C#N)cn1)c1ccc(-c2cnn(C)c2)c(C=O)n1 [Example 22, 3-(5-cyano-4-((2-hydroxy-2-methylpropyl)amino)pyridin-2-yl)-1-(6-formyl-5-(1-methyl-1H-pyrazol-4-yl)pyridin-2-yl)-1-methylurea] has an IC50 [1] of 0.0057 µM, an IC50 ([3]; Homo sapiens, Huh-7, 72 h) of over 3 µM and an IC50 [3] of 1.8 µM. The IC50 [2] was 0.046 µM.

Compound COCCNc1cc(NC(=O)N(CCOC)c2cccc(C=O)n2)ncc1C#N [Example 3, 3-(5-cyano-4-((2-methoxyethyl)amino)pyridin-2-yl)-1-(6-formylpyridin-2-yl)-1-(2-methoxyethyl)urea] has an IC50 (FGFR3 (411-806)) of over 10 µM, an IC50 (FGFR2 (406-821)) of over 10 µM and an IC50 (FGFR1 (407-822)) of over 10 µM.

COCCNc1cc(NC(=O)N(C)c2cccc(C=O)n2)ncc1C#N [Example 2, 3-(5-cyano-4-((2-methoxyethyl)amino)pyridin-2-yl)-1-(6-formylpyridin-2-yl)-1-methylurea] showed an IC50 (FGFR3 (411-806)) of over 10 µM, an IC50 (FGFR2 (406-821)) of over 10 µM and an IC50 (FGFR1 (407-822)) of over 10 µM.

CC(C)Nc1cc(NC(=O)N(C)c2ccc(-c3cnn(C)c3)c(C=O)n2)ncc1C#N [Example 14, 3-(5-cyano-4-(isopropylamino)pyridin-2-yl)-1-(6-formyl-5-(1-methyl-1H-pyrazol-4-yl)pyridin-2-yl)-1-methylurea] was tested, and the IC50 [1] was 0.0036 µM.

N#Cc1ccc(Nc2ccccc2-c2cccc(C=O)n2)nc1 [Example 1, 6-((2-(6-formylpyridin-2-yl)phenyl)amino)nicotinonitrile] gave an IC50 [1] of 0.33 µM.

In the case of CC(C)Oc1cc(NC(=O)N(C)c2ccc(CN3CCN(C)CC3=O)c(C=O)n2)ncc1C#N [Example 21, 3-(5-cyano-4-isopropoxypyridin-2-yl)-1-(6-formyl-5-((4-methyl-2-oxopiperazin-1-yl)methyl)pyridin-2-yl)-1-methylurea], the IC50 [1] is reported as 0.0048 µM, the IC50 ([3]; Homo sapiens, Huh-7, 72 h) is reported as 0.878 µM and the IC50 [2] is reported as 0.0069 µM.

CCN(C(=O)Nc1cc(NC(C)C)c(C#N)cn1)c1ccc(-c2cnn(C)c2)c(C=O)n1 [Example 11, 3-(5-cyano-4-(isopropylamino)pyridin-2-yl)-1-ethyl-1-(6-formyl-5-(1-methyl-1H-pyrazol-4-yl)pyridin-2-yl)urea] was tested, and the IC50 [1] was 0.0056 µM, the IC50 (FGFR3 (411-806)) was over 10 µM and the IC50 (FGFR2 (406-821)) was over 10 µM. For the same compound, the IC50 (FGFR1 (407-822)) was over 10 µM and the IC50 [2] was 0.017 µM.

In the case of COCCNc1cc(NC(=O)N(CC2CCOC2)c2cccc(C=O)n2)ncc1C#N (racemic) [Example 4, 3-(5-cyano-4-((2-methoxyethyl)amino)pyridin-2-yl)-1-(6-formylpyridin-2-yl)-1-((tetrahydrofuran-3-yl)methyl)urea], the IC50 [1] is reported as 0.0019 µM, the IC50 (FGFR3 (411-806)) is reported as over 10 µM and the IC50 (FGFR2 (406-821)) is reported as over 10 µM. The IC50 (FGFR1 (407-822)) was over 10 µM and the IC50 [2] was 0.268 µM.

Compound COCCNc1cc(NC(=O)N(C[C@H]2CCOC2)c2cccc(C=O)n2)ncc1C#N (single isomer, unassigned) [Example 7] has an IC50 [1] of 0.0051 µM and an IC50 [2] of 0.223 µM.

COCCNc1cc(NC(=O)N(C[C@@H]2CCOC2)c2cccc(C=O)n2)ncc1C#N (single isomer, unassigned) [Example 6] was tested, and the IC50 [1] was 0.0047 µM and the IC50 [2] was 0.14 µM.

Compound CN(C(=O)Nc1ccc(C#N)cn1)c1ccc(CN2CCCC2=O)c(C=O)n1 [Example 19, 3-(5-cyanopyridin-2-yl)-1-(6-formyl-5-((2-oxopyrrolidin-1-yl)methyl)pyridin-2-yl)-1-methylurea] has an IC50 [1] of 0.078 µM.

CCN(C(=O)Nc1cc(OC(C)C)c(C#N)cn1)c1ccc(-c2cnn(C)c2)c(C=O)n1 [Example 12, 3-(5-cyano-4-isopropoxypyridin-2-yl)-1-ethyl-1-(6-formyl-5-(1-methyl-1H-pyrazol-4-yl)pyridin-2-yl)urea] was tested, and the IC50 [1] was 0.0086 µM, the IC50 ([3]; Homo sapiens, Huh-7, 72 h) was 2.14 µM and the IC50 [2] was 0.033 µM.

CC(C)Oc1cc(NC(=O)N(C)c2ccc(-c3cnn(C)c3)c(C=O)n2)ncc1C#N [Example 25, 3-(5-cyano-4-isopropoxypyridin-2-yl)-1-(6-formyl-5-(1-methyl-1H-pyrazol-4-yl)pyridin-2-yl)-1-methylurea] gave an IC50 [1] of 0.0063 µM.

Work on COC1CCN(Cc2ccc(N(C)C(=O)Nc3cc(OC(C)C)c(C#N)cn3)nc2C=O)C1 (racemic) [Example 26, 3-(5-cyano-4-isopropoxypyridin-2-yl)-1-(6-formyl-5-((3-methoxypyrrolidin-1-yl)methyl)pyridin-2-yl)-1-methylurea] yielded an IC50 [1] of 0.017 µM, an IC50 ([3]; Homo sapiens, Huh-7, 72 h) of over 3 µM and an IC50 [2] of 0.501 µM.

In the case of CC(C)Oc1cc(NC(=O)N(C)c2ccc(CN3CCCC3)c(C=O)n2)ncc1C#N [Example 29, 3-(5-cyano-4-isopropoxypyridin-2-yl)-1-(6-formyl-5-(pyrrolidin-1-ylmethyl)pyridin-2-yl)-1-methylurea], the IC50 [1] is reported as 0.25 µM, the IC50 ([3]; Homo sapiens, Huh-7, 72 h) is reported as over 3 µM and the IC50 [2] is reported as over 3 µM.

For CC(C)Oc1cc(NC(=O)N(C)c2ccc(CN3CCCC3=O)c(C=O)n2)ncc1C#N [Example 23, 3-(5-cyano-4-isopropoxypyridin-2-yl)-1-(6-formyl-5-((2-oxopyrrolidin-1-yl)methyl)pyridin-2-yl)-1-methylurea], the IC50 [1] was 0.0007 µM, the IC50 ([3]; Homo sapiens, Huh-7, 72 h) was 0.118 µM and the IC50 [2] was 0.0088 µM.

With CC(C)Oc1cc(NC(=O)N(C)c2ccc(C(=O)O)c(C=O)n2)ncc1C#N [Example 8, 6-(3-(5-cyano-4-isopropoxypyridin-2-yl)-1-methylureido)-2-formylnicotinic acid] the IC50 [1] was 0.0016 µM and the IC50 [2] was 0.737 µM.

With COCCNc1cc(Nc2nccn2-c2ccc(-c3cnn(C)c3)c(C=O)n2)ncc1C(F)(F)F [Example 27, 6-(2-((4-((2-methoxyethyl)amino)-5-(trifluoromethyl)pyridin-2-yl)amino)-1H-imidazol-1-yl)-3-(1-methyl-1H-pyrazol-4-yl)picolinaldehyde] the IC50 [1] was 0.34 µM, the IC50 ([3]; Homo sapiens, Huh-7, 72 h) was over 3 µM and the IC50 [2] was 0.568 µM.
